Source: paper PMC6445123 (Scientific Reports, 2019)
Read-outs that look alike come from different tables or passages of the source.

How the values were obtained:
[1] = biological target: T1, recombinant active Casp6 (Casp6-WT) (Homo sapiens, UniProt P55212, INS179NQTEKLDTNITEVD); assay: Fluorescence-based Ac-VEID-AFC cleavage assay (Casp6 activity, IC50 determination); assay type: biochemical
T1 construct: generating mainly large subunit with a linker (LS-L), small subunit (SS), and a minor amount of large subunit (LS); His (C); made in house; host or cells: E. coli BL21(DE3)pLysS
T1 sequence (P55212 24-193 limits assumed): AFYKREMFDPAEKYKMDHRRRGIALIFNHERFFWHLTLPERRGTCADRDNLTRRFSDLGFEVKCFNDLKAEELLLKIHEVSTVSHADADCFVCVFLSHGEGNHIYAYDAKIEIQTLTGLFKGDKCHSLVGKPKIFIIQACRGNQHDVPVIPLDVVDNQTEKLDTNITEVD
T1 sequence (P55212 194-293 limits assumed): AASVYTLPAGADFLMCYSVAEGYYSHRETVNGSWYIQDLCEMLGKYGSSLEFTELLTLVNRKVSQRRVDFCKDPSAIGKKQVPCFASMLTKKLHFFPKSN
Experimental: To assess the potency of in silico hits, a fluorescence-based Ac-VEID-AFC cleavage assay was used to measure recombinant active Casp6 reaction rate in the absence or presence of 100 µM concentration of compounds. A 30% inhibition cut off was arbitrarily chosen for further investigation of putative inhibitors. […] AFC signal interference by compound intrinsic fluorescence was ruled out (Fig. S4). Casp6 inhibition was confirmed for seven compounds (C7, C13, C14, S2, S10, S11 and S13) using a colorimetric Ac-VEID-pNA cleavage assay (Table 2, Fig. S3).
Casp6 active sites were quantified using zVAD-FMK (N-benzyloxycarbonyl-Val-Ala-Asp-(O-methyl)-fluoromethylketone, MP Biomedicals, Santa Ana, CA, USA)[51],[64]. Casp6 activity was measured in Stennicke’s buffer (SB: 20 mM piperazine-N,N′-bis-(2-ethanesulfonic acid) pH 7.2, 100 mM NaCl, 10 mM DTT, 1 mM EDTA, 0.1% 3-[(3-cholamidopropyl)-dimethylammonio]-2-hydroxy-1-propanesulfonic acid, 10% sucrose)[65] using 40 µM Ac-VEID-AFC (Ac-Val-Glu-Ile-Asp-7-Amino-4-trifluoromethylcoumarin, Enzo Life Sciences, Farmingdale, NY, USA)[64] and 10-250 nM active site titrated Casp6. Reactions were initiated by Ac-VEID-AFC addition and followed for 20 min at 37 °C in a black clear bottom 96-well microplate (Costar, Corning, NY, USA) in Synergy H4 Hybrid instrument (BioTek, Winooski, VT, USA) with excitation/emission at 380/505 nm. Released AFC was calculated from AFC standard curve (0-25 µM). Casp6 VEIDase activity (released pmol AFC/min) was calculated from the initial linear reaction part. Ac-VEID-AFC hydrolysis initial velocities were measured with 10 nM active-site titrated Casp6 and […] Ac-VEID-AFC. Initial velocities v versus substrate concentration [S] were fit to a rectangular hyperbola using Michaelis-Menten equation in GraphPad Prism 5 (GraphPad Software, La Jolla, CA, USA).
In fluorescence-based Casp6 activity assay, 10 µM Ac-VEID-AFC was added to 20 nM Casp6 in SB with 100 μM compound and 1% dimethyl sulfoxide (DMSO), and reaction rate was measured for 20 min at 37 °C as above. Compound potency was calculated by normalising Ac-VEID-AFC cleavage rate to 1% DMSO control. In colorimetric Casp6 activity assay, 200 µM Ac-VEID-pNA (N-acetyl-Val-Glu-Ile-Asp-p-nitroanilide, Enzo Life Sciences) was added to 200 nM Casp6 in SB with 100 μM compound, and Ac-VEID-pNA cleavage rate was measured at 37 °C for 30 min in clear 96-well plate (Sartstedt, Nümbrecht, Germany) using Synergy H4 plate reader at 405 nm. Absorbance was converted to the released pNA amount based on a standard curve of 0–250 µM pNA. Cleavage rates were calculated from the linear assay phase and were normalised to 1% DMSO control. In Casp6-C163A cleavage assay, 0.5 ng/µl Casp6-WT was preincubated with 100 µM inhibitor, 5 µM Q-VD-OPh or 1% DMSO in SB (30 min, RT), followed by transfer on ice, addition of 0.5 µg/µl Casp6-C163A, and incubation (37 °C, 5, 10 and 15 min). Reactions were stopped by adding SDS-PAGE sample buffer (62.5 mM Tris pH 6.8, 2% SDS, 0.1 M DTT, 0.01% Bromphenol Blue, 10% glycerol) and heating (5 min, 95 °C). Samples (2 µl) were analysed on 15% SDS-PAGE gels, proteins were stained with Coomassie blue, and gels were de-stained with 10% acetic acid. The intensities of protein bands were quantified from scanned gels using ImageJ. The band intensity of Casp6-C163A without a prodomain was plotted against the time and the Casp6-C163A cleavage rates were calculated from the slopes of linear plots. The % activity of Casp6-WT in the presence of inhibitors was calculated relative to DMSO control.
IC50 values were determined against 20 nM Casp6 active sites in fluorescence-based Casp6 activity assay with 10 µM Ac-VEID-AFC and 1 nM-500 µM inhibitor. IC50 was calculated with GraphPad Prism 5 by a nonlinear regression fit for log inhibitor vs relative Casp6 activity (% DMSO control) using a Hill slope of – 1, and top and bottom constraints of 100 and 0, respectively.

Casp6 = biological target: T2, Casp6 (Homo sapiens, UniProt P55212, INS179NQTEKLDTNITEVD); assay: Reversibility of Casp6 inhibition (pre-incubation at 10-fold IC50, rapid 100-fold dilution); assay type: biochemical; conditions: recovery of activity after 60 min pre-incubation and 100-fold dilution
T2 construct: generating mainly large subunit with a linker (LS-L), small subunit (SS), and a minor amount of large subunit (LS); His (C); made in house; host or cells: E. coli BL21(DE3)pLysS
T2 sequence (P55212 24-193 limits assumed): T1 sequence (P55212 24-193 limits assumed)
T2 sequence (P55212 194-293 limits assumed): T1 sequence (P55212 194-293 limits assumed)
Experimental: Supplementary Figure S5. Mechanism of Casp6 inhibition with C13 and S10G. (a) Inhibition of Casp6 with C13 (left panel) and S10G (right panel) is reversible. The recovery of Casp6 activity after 60 min pre-incubation with C13 and S10G at a concentration of inhibitor equal to 10-fold the IC50 value followed by a rapid 100-fold […]
(1 picture or pasted object on this page, not shown here) […]
dilution into Casp6 activity assay solution. The control samples DMSO and Q-VD-OPh were pre-incubated and diluted in the absence of inhibitor, and in the presence of an irreversible inhibitor Q-VD-OPh, respectively. Data points represent mean ± standard error of the mean (SEM) from three independent experiments. (b) Coomassie stain of SDS-PAGE of purified recombinant WT -, L200A-, and K284A-Casp6 (left panel) expressed from a full -length Casp6 encoding construct (Fig. 1c ), and copurified LS and SS of WT -, L200A-, and K284A-LS-SS-Casp6 (right panel). FL (full-length Casp6), ΔCasp6 (Casp6 without a prodomain), LS-L (large subunit with linker), LS (large subunit), and SS (small subunit) depict different bands of Casp6. (c) Michaelis-Menten kinetic plots (top panel) and calculated KM and Vmax values (bottom panel) for Casp6-WT-LS-SS (left panel), Casp6-L200A-LS-SS (middle panel), and Casp6-K284A-LS-SS (right panel) enzymatic activity in presence of 1% DMSO (0 µM C13) or increasing doses of C13. […]

In the case of COC(=O)c1cc(CNC(=O)C2Cc3ccccc3O2)cc(NC(=O)c2ccco2)c1 (centres unmarked) [Compound C13], the inhibition at 100 µM ([1]; 100 µM compound, 10 µM Ac-VEID-AFC, 20 nM Casp6, relative to 1% DMSO control) is reported as 57.1 ± 4.7%, the IC50 ([1]; Casp6-WT, compared with Casp6-K284A, read-out: IC50 of C13 for Casp6-WT (Fig. 4f)) is reported as 17.2 ± 3.6 µM and the IC50 ([1]; fluorescence assay, 20 nM Casp6 active sites, 10 µM Ac-VEID-AFC, read-out: IC50) is reported as 13.2 ± 2.5 µM. The “potency for Casp6 of in-house synthesised compound compared to commercial compound” value ([1]; synthesised in the authors' laboratory vs commercial source) was “lower potency” and the “reversibility of Casp6 inhibition” value (Casp6) was “reversible”.
